What is called IC50 is the concentration that gives 50% inhibition.

For 1 compound, IC50 results are on record in patent US20110152303A1, “Chemical Compounds” (GlaxoSmithKline LLC, priority 2009, published 2011).

SMILES strings stand for the structures.

The experiment deals with VSV-G pseudotyped, replication defective HIV vector (HIV IIIB) in CIP4 cells. Briefly: microbe, parasite or virus in culture. It counts as cell-based. The note with it: Human immunodeficiency virus 1, CIP4, 48 h, read-out: IC50 in the PHIV assay.

As to `[2H]C([2H])([2H])c1cc(/C=C/C#N)cc(C([2H])([2H])[2H])c1Nc1ccnc(Nc2ccc(C#N)cc2)n1` [Compound D, (E)-4-((4-((4-(2-Cyanovinyl)-2,6-dimethylphenyl)amino)pyrimidin-2-yl)amino)benzonitrile-d6], the IC50 was determined as 300 pM.
